Experimental data from the supplement of paper PMC10307832.

Assays:
Test in all cases: relative viability (nuclei count vs DMSO), 5 days (fraction); higher = more cells survive
Ruxolitinib + Trametinib = compound: N#CC[C@H](C1CCCC1)n1cc(-c2ncnc3[nH]ccc23)cn1 [Ruxolitinib] + CC(=O)Nc1cccc(-n2c(=O)n(C3CC3)c(=O)c3c(Nc4ccc(I)cc4F)n(C)c(=O)c(C)c32)c1 [Trametinib] (partner 0.02 µM)
How it was run: (§1)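 Relative viability was taken as the ratio of nuclei in treated wells to nuclei in vehicle wells. Lung cancer cell lines in 1536-well plates received compounds by pin tool one day after seeding, either one drug alone or a fixed anchor-drug dose plus five library-drug doses (not always all listed) in √10 steps. Nuclei were counted on 4× images after 5 days of treatment, and values are medians of duplicate plates.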

Vismodegib + Alpelisib = compound: CS(=O)(=O)c1ccc(C(=O)Nc2ccc(Cl)c(-c3ccccn3)c2)c(Cl)c1 [Vismodegib] + Cc1nc(NC(=O)N2CCC[C@H]2C(N)=O)sc1-c1ccnc(C(C)(C)C(F)(F)F)c1 [Alpelisib] (partner 2 µM)
How it was run: as §1

Vismodegib + Navitoclax = compound: CS(=O)(=O)c1ccc(C(=O)Nc2ccc(Cl)c(-c3ccccn3)c2)c(Cl)c1 [Vismodegib] + CC1(C)CCC(c2ccc(Cl)cc2)=C(CN2CCN(c3ccc(C(=O)NS(=O)(=O)c4ccc(N[C@H](CCN5CCOCC5)CSc5ccccc5)c(S(=O)(=O)C(F)(F)F)c4)cc3)CC2)C1 [Navitoclax] (partner 0.5 µM)
How it was run: as §1

VE-821 + Foretinib = compound: CS(=O)(=O)c1ccc(-c2cnc(N)c(C(=O)Nc3ccccc3)n2)cc1 [VE-821] + COc1cc2c(Oc3ccc(NC(=O)C4(C(=O)Nc5ccc(F)cc5)CC4)cc3F)ccnc2cc1OCCCN1CCOCC1 [Foretinib] (partner 0.25 µM)
How it was run: as §1

Row | Cell Line | relative viability (Ruxolitinib + Trametinib; first compound 0.08 µM) | relative viability (Ruxolitinib + Trametinib; first compound 0.253 µM) | relative viability (Ruxolitinib + Trametinib; first compound 0.8 µM) | relative viability (Ruxolitinib + Trametinib; first compound 2.53 µM) | relative viability (Ruxolitinib + Trametinib; first compound 8 µM) | relative viability (Vismodegib + Alpelisib; first compound 0.08 µM) | relative viability (Vismodegib + Alpelisib; first compound 0.253 µM) | relative viability (Vismodegib + Alpelisib; first compound 0.8 µM) | relative viability (Vismodegib + Alpelisib; first compound 2.53 µM) | relative viability (Vismodegib + Alpelisib; first compound 8 µM) | relative viability (Vismodegib + Navitoclax; first compound 0.08 µM) | relative viability (Vismodegib + Navitoclax; first compound 0.253 µM) | relative viability (Vismodegib + Navitoclax; first compound 0.8 µM) | relative viability (Vismodegib + Navitoclax; first compound 2.53 µM) | relative viability (Vismodegib + Navitoclax; first compound 8 µM) | relative viability (VE-821 + Foretinib; first compound 0.08 µM) | relative viability (VE-821 + Foretinib; first compound 0.253 µM) | relative viability (VE-821 + Foretinib; first compound 0.8 µM) | relative viability (VE-821 + Foretinib; first compound 2.53 µM) | relative viability (VE-821 + Foretinib; first compound 8 µM)
1 | RERF-LC-KJ | 0.797 | 0.978 | 0.939 | 0.834 | 0.906 | 0.789 | 0.748 | 0.909 | 0.748 | 0.773 | 0.997 | 1.08 | 0.85 | 0.756 | 0.802 | 0.861 | 0.868 | 0.793 | 0.767 | 0.698
2 | SK-LU-1 | 0.5 | 0.578 | 0.548 | 0.3 | 0.408 | 1.07 | 0.987 | 1.07 | 0.894 | 1.06 | 0.831 | 0.695 | 0.834 | 0.736 | 0.936 | 0.871 | 0.775 | 0.738 | 0.59 | 0.254
3 | SK-MES-1 | 0.561 | 0.596 | 0.587 | 0.315 | 0.516 | 0.851 | 0.956 | 0.802 | 0.827 | 0.837 | 1.23 | 1.22 | 1.23 | 1.15 | 1.17 | 0.99 | 0.989 | 0.655 | 1.02 | 0.89
4 | SW 1573 | 0.533 | 0.545 | 0.616 | 0.486 | 0.574 | 0.7 | 0.691 | 0.717 |  | 0.754 | 0.808 | 0.94 | 0.886 |  | 1.04 | 0.96 | 0.853 | 0.861 | 0.815 | 0.87
